Laboratory results reported in patent US9795139B2, “Molecules having pesticidal utility, and intermediates, compositions, and processes, related thereto” (priority 2015, dated 2017).

What was measured:
Assay type in all cases: in vivo
[1] = system: Cabbage Looper (Trichoplusia ni, TRIPNI); experiment: Bioassay on Cabbage Looper (CL), 128-well diet tray assay; settings: 168 h, 50 μg/cm^2 on artificial diet, second instar larvae, 25° C., five to seven days, average of eight wells, read-out: CL % Control (or Mortality) rating
Procedure, shortened: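 Mortality of second instar larvae exposed to diet coated with 50 μg/cm^2 compound (acetone-water 90:10 vehicle, dried); 25° C., 5–7 days.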

[2] = system: Yellow Fever Mosquito (Aedes aegypti, AEDSAE); settings: about 1 day-old larvae, 96-well plate from 4000 ppm DMSO master, 3 days at room temperature
Procedure, shortened: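 Each well was scored for mortality after 3 days at room temperature under a non-evaporative lid. Test molecules came from DMSO masters (4000 ppm stock) diluted with water/acetone 90:10 and dispensed into six replicate plates, which were then infested with roughly 1-day-old larvae in liver-powder water.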

[3] = system: Beet Armyworm (Spodoptera exigua, LAPHEG); experiment: Bioassay on Beet Armyworm (BAW), 128-well diet tray assay; settings: 168 h, 50 μg/cm^2 on artificial diet, second instar larvae, 25° C., five to seven days, average of eight wells, read-out: BAW % Control (or Mortality) rating
Procedure, shortened: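 Diet tray, 8 wells/compound; 50 μg/cm^2 applied to diet surface (90:10 acetone-water), dried. 1–5 L2 larvae/well; 25° C., 14:10 L:D, 5–7 d. Read-out: % mortality, mean of 8 wells.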

[4] = system: Green Peach Aphid (Myzus persicae, MYZUPE); experiment: Bioassay on Green Peach Aphid (GPA), foliar spray on cabbage seedlings; settings: 72 h, 200 ppm foliar spray on cabbage seedlings, three days, Abbott corrected % control, read-out: GPA % Control (or Mortality) rating
Protocol: Certain molecules disclosed in this document were tested against GPA using procedures described in the following example. In the reporting of the results, the “GPA & YFM Rating Table” was used (See Table Section).
Cabbage seedlings grown in 3-inch pots, with 2-3 small (3-5 cm) true leaves, were used as test substrate. The seedlings were infested with 20-50 GPA (wingless adult and nymph stages) one day prior to chemical application. Four pots with individual seedlings were used for each treatment. Test molecules (2 mg) were dissolved in 2 mL of acetone/methanol (1:1) solvent, forming stock solutions of 1000 ppm test molecule.
The stock solutions were diluted 5× with 0.025% Tween 20 in water to obtain the solution at 200 ppm test molecule. A hand-held aspirator-type sprayer was used for spraying a solution to both sides of […] leaves until runoff. Reference plants (solvent check) were sprayed with the diluent only containing 20% by volume of acetone/methanol (1:1) solvent. Treated plants were held in a holding room for three days at approximately 25° C. and ambient relative humidity (RH) prior to grading. Evaluation was conducted by counting the number of live aphids per plant under a microscope. Percent control was measured using Abbott's correction formula (W. S. Abbott, “A Method of Computing the Effectiveness of an Insecticide” J. Econ. Entomol. 18 (1925), pp. 265-267) as follows. Corrected % Control=100*(X−Y)/X where X=No. of live aphids on solvent check plants and Y=No. of live aphids on treated plants. The results are indicated in the table entitled “Table ABC: Biological Results” (See Table Section).

SMILES: O=C(NC1CC1)c1cccc(NC(=O)[C@H]2[C@H](c3cc(Cl)cc(Cl)c3)C2(Cl)Cl)c1 (relative stereo) [Molecule F3, trans-N-Cyclopropyl-3-(2,2-dichloro-3-(3,5-dichlorophenyl)cyclopropanecarboxamido)benzamide]
- mortality at 50 µg/cm2 [1]: 50 to 100%
- YFM % Control (or Mortality) rating [2]: A (80-100)
- mortality at 50 µg/cm2 [3]: 50 to 100%
- mortality at 200 ppm [4]: 0 to 80%

SMILES: N#CC1(NC(=O)c2cc(NC(=O)[C@H]3[C@H](c4cc(Cl)cc(Cl)c4)C3(Cl)Cl)ccc2Cl)CC1 (relative stereo) [Molecule F4, trans-2-Chloro-N-(1-cyanocyclopropyl)-5-(2,2-dichloro-3-(3,5-dichlorophenyl)cyclopropanecarboxamido)benzamide]
- mortality at 50 µg/cm2 [1]: 50 to 100%
- YFM % Control (or Mortality) rating [2]: A (80-100)
- mortality at 50 µg/cm2 [3]: 50 to 100%
- mortality at 200 ppm [4]: 80 to 100%

SMILES: O=C(NC1CC(F)(F)C1)c1cc(NC(=O)[C@H]2[C@H](c3cc(Cl)cc(Cl)c3)C2(Cl)Cl)ccc1Cl (relative stereo) [Molecule F5, trans-2-Chloro-5-(2,2-dichloro-3-(3,5-dichlorophenyl)cyclopropanecarboxamido)-N-(3,3-difluorocyclobutyl)benzamide]
- mortality at 50 µg/cm2 [1]: 50 to 100%
- YFM % Control (or Mortality) rating [2]: A (80-100)
- mortality at 50 µg/cm2 [3]: 50 to 100%
- mortality at 200 ppm [4]: 80 to 100%

SMILES: O=C(NC1CCSC1)c1cc(NC(=O)[C@H]2[C@H](c3cc(Cl)c(Cl)c(Cl)c3)C2(Cl)Cl)ccc1Cl (relative stereo) [Molecule F8, trans-2-chloro-5-(2,2-dichloro-3-(3,4,5-trichlorophenyl)cyclopropanecarboxamido)-N-(tetrahydrothiophen-3-yl)benzamide]
- mortality at 50 µg/cm2 [1]: 50 to 100%
- YFM % Control (or Mortality) rating [2]: A (80-100)
- mortality at 50 µg/cm2 [3]: 50 to 100%
- mortality at 200 ppm [4]: 0%

SMILES: O=C(NC1CC(F)(F)C1)c1cc(NC(=O)[C@H]2[C@H](c3ccc(Cl)c(Cl)c3)C2(Cl)Cl)ccc1Cl (relative stereo) [Molecule F9, trans-2-Chloro-5-(2,2-dichloro-3-(3,4-dichlorophenyl)cyclopropanecarboxamido)-N-(3,3-difluorocyclobutyl)benzamide]
- mortality at 50 µg/cm2 [1]: 50 to 100%
- YFM % Control (or Mortality) rating [2]: A (80-100)
- mortality at 50 µg/cm2 [3]: 50 to 100%
- mortality at 200 ppm [4]: 80 to 100%

SMILES: N#CC1(NC(=O)c2cc(NC(=O)[C@H]3[C@H](c4cc(Cl)c(Cl)c(Cl)c4)C3(Cl)Cl)ccc2Cl)CC1 (relative stereo) [Molecule F10, trans-2-Chloro-N-(1-cyanocyclopropyl)-5-(2,2-dichloro-3-(3,4,5-trichlorophenyl)cyclopropanecarboxamido)benzamide]
- mortality at 50 µg/cm2 [1]: 50 to 100%
- YFM % Control (or Mortality) rating [2]: A (80-100)
- mortality at 50 µg/cm2 [3]: 50 to 100%
- mortality at 200 ppm [4]: 80 to 100%

SMILES: N#CC1(NC(=O)c2cc(NC(=O)[C@H]3[C@H](c4ccc(Cl)c(Cl)c4)C3(Cl)Cl)ccc2Cl)CC1 (relative stereo) [Molecule F11, trans-2-Chloro-N-(1-cyanocyclopropyl)-5-(2,2-dichloro-3-(3,4-dichlorophenyl)cyclopropanecarboxamido)benzamide]
- mortality at 50 µg/cm2 [1]: 50 to 100%
- YFM % Control (or Mortality) rating [2]: A (80-100)
- mortality at 50 µg/cm2 [3]: 50 to 100%
- mortality at 200 ppm [4]: 80 to 100%

SMILES: O=C(NC1CCOCC1)c1cc(NC(=O)[C@H]2[C@H](c3cc(Cl)cc(Cl)c3)C2(Cl)Cl)ccc1Cl (relative stereo) [Molecule F55, trans-2-chloro-5-(2,2-dichloro-3-(3,5-dichlorophenyl)cyclopropanecarboxamido)-N-(tetrahydro-2H-pyran-4-yl)benzamide]
- mortality at 50 µg/cm2 [1]: 50 to 100%
- mortality at 50 µg/cm2 [3]: 50 to 100%
- mortality at 200 ppm [4]: 80 to 100%

SMILES: O=C(N[C@@H]1CON(CC(F)(F)F)C1=O)c1cc(NC(=O)C2C(c3cc(Cl)cc(Cl)c3)C2(Cl)Cl)ccc1Cl (stereo partly drawn) [PF28, trans-2-Chloro-5-(2,2-dichloro-3-(3,5-dichlorophenyl)cyclopropane-1-carbox-amido)-N—((R)-3-oxo-2-(2,2,2-trifluoroethyl)isoxazolidin-4-yl)benzamide]
- mortality at 50 µg/cm2 [1]: 50 to 100%
- YFM % Control (or Mortality) rating [2]: A (80-100)
- mortality at 50 µg/cm2 [3]: 50 to 100%

SMILES: O=C(NC1CCNC1=O)c1cc(NC(=O)C2C(c3cc(Cl)cc(Cl)c3)C2(Cl)Cl)ccc1Cl (stereo not drawn) [PF29, trans-2-Chloro-5-(2,2-dichloro-3-(3,5-dichlorophenyl)cyclopropane-1-carbox-amido)-N-(2-oxopyrrolidin-3-yl)benzamide]
- mortality at 50 µg/cm2 [1]: 50 to 100%
- YFM % Control (or Mortality) rating [2]: B (More than 0-Less than 80)
- mortality at 50 µg/cm2 [3]: 50 to 100%

SMILES: O=C(NN1CCOC1=O)c1cc(NC(=O)C2C(c3cc(Cl)cc(Cl)c3)C2(Cl)Cl)ccc1Cl (stereo not drawn) [PF34, trans-2-Chloro-5-(2,2-dichloro-3-(3,5-dichlorophenyl)cyclopropanecarbox-amido)-N-(2-oxooxazolidin-3-yl)benzamide]
- mortality at 50 µg/cm2 [1]: 50 to 100%
- YFM % Control (or Mortality) rating [2]: A (80-100)
- mortality at 50 µg/cm2 [3]: 50 to 100%

SMILES: O=C(NC1CCSC1=O)c1cc(NC(=O)C2C(c3cc(Cl)cc(Cl)c3)C2(Cl)Cl)ccc1Cl (stereo not drawn) [PF36, trans-2-Chloro-5-(2,2-dichloro-3-(3,5-dichlorophenyl)cyclopropane-1-carbox-amido)-N-(2-oxotetrahydrothiophen-3-yl)benzamide]
- mortality at 50 µg/cm2 [1]: 50 to 100%
- YFM % Control (or Mortality) rating [2]: A (80-100)
- mortality at 50 µg/cm2 [3]: 50 to 100%

SMILES: O=C(NC1CCOC1=O)c1cc(NC(=O)C2C(c3cc(Cl)cc(Cl)c3)C2(Cl)Cl)ccc1Cl (stereo not drawn) [PF37, trans-2-Chloro-5-(2,2-dichloro-3-(3,5-dichlorophenyl)cyclopropane-1-carbox-amido)-N-(2-oxotetrahydrofuran-3-yl)benzamide]
- mortality at 50 µg/cm2 [1]: 50 to 100%
- YFM % Control (or Mortality) rating [2]: A (80-100)
- mortality at 50 µg/cm2 [3]: 50 to 100%

SMILES: O=C(NN1CC(CN2CCOCC2)OC1=O)c1cc(NC(=O)C2C(c3cc(Cl)cc(Cl)c3)C2(Cl)Cl)ccc1Cl (stereo not drawn) [PF41, trans-2-Chloro-5-(2,2-dichloro-3-(3,5-dichlorophenyl)cyclopropane-1-carbox-amido)-N-(5-(morpholinomethyl)-2-oxooxazolidin-3-yl)benzamide]
- mortality at 50 µg/cm2 [1]: 50 to 100%
- YFM % Control (or Mortality) rating [2]: A (80-100)
- mortality at 50 µg/cm2 [3]: 0 to 50%

SMILES: O=C(NC1(C(=O)NCC(F)(F)F)CC1)c1cc(NC(=O)C2C(c3cc(Cl)cc(Cl)c3)C2(Cl)Cl)ccc1Cl (stereo not drawn) [PF42, trans-2-Chloro-5-(2,2-dichloro-3-(3,5-dichlorophenyl)cyclopropane-1-carbox-amido)-N-(1-((2,2,2-trifluoroethyl)carbamoyl)cyclopropyl)benzamide]
- mortality at 50 µg/cm2 [1]: 50 to 100%
- YFM % Control (or Mortality) rating [2]: A (80-100)
- mortality at 50 µg/cm2 [3]: 50 to 100%

SMILES: CCNC(=O)C1(NC(=O)c2cc(NC(=O)C3C(c4cc(Cl)cc(Cl)c4)C3(Cl)Cl)ccc2Cl)CC1 (stereo not drawn) [PF43, trans-2-Chloro-5-(2,2-dichloro-3-(3,5-dichlorophenyl)cyclopropane-1-carbox-amido)-N-(1-(ethylcarbamoyl)cyclopropyl)benzamide]
- mortality at 50 µg/cm2 [1]: 50 to 100%
- YFM % Control (or Mortality) rating [2]: A (80-100)
- mortality at 50 µg/cm2 [3]: 50 to 100%

SMILES: O=C(NN1CCN(CC(F)(F)F)C1=O)c1cc(NC(=O)C2C(c3cc(Cl)cc(Cl)c3)C2(Cl)Cl)ccc1Cl (stereo not drawn) [PF44, trans-2-Chloro-5-(2,2-dichloro-3-(3,5-dichlorophenyl)cyclopropane-1-carbox-amido)-N-(2-oxo-3-(2,2,2-trifluoroethyl)imidazolidin-1-yl)benzamide]
- mortality at 50 µg/cm2 [1]: 50 to 100%
- YFM % Control (or Mortality) rating [2]: A (80-100)
- mortality at 50 µg/cm2 [3]: 50 to 100%

SMILES: CCN1OC[C@@H](NC(=O)c2cc(NC(=O)C3C(c4cc(Cl)cc(Cl)c4)C3(Cl)Cl)ccc2Cl)C1=O (stereo partly drawn) [PF45, trans-2-Chloro-5-(2,2-dichloro-3-(3,5-dichlorophenyl)cyclopropane-1-carbox-amido)-N—((R)-2-ethyl-3-oxoisoxazolidin-4-yl)benzamide]
- mortality at 50 µg/cm2 [1]: 50 to 100%
- YFM % Control (or Mortality) rating [2]: A (80-100)
- mortality at 50 µg/cm2 [3]: 50 to 100%
